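The compound was tested at five concentrations on cells cultured in 96-well plates, with a 48-hour exposure period. Definition used: TGI = concentration required for complete inhibition of growth.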
Key:
Assay in all cases: DTP human tumour cell line panel, 48 h
XF 498 CNS = tested on: XF 498 CNS
DLD-1 colon = tested on: DLD-1 colon
NCI-H23 lung = tested on: NCI-H23 lung
RXF-631 renal = tested on: RXF-631 renal
UACC-62 melanoma = tested on: UACC-62 melanoma
HOP-62 NSCLC = tested on: HOP-62 NSCLC
KM20L2 colon = tested on: KM20L2 colon
LXFL 529 NSCLC = tested on: LXFL 529 NSCLC
DMS 114 small cell lung = tested on: DMS 114 small cell lung
COLO 205 colon = tested on: COLO 205 colon
HOP-18 NSCLC = tested on: HOP-18 NSCLC
SF-268 CNS = tested on: SF-268 CNS
DMS 273 small cell lung = tested on: DMS 273 small cell lung
SNB-78 CNS = tested on: SNB-78 CNS
M19-MEL melanoma = tested on: M19-MEL melanoma

CCOC(=O)C1SC(=Nc2ccc(OC)c(OC)c2)N=C1C (stereo not drawn)
TGI (XF 498 CNS): 68.8 µM | TGI (DLD-1 colon): > 100 µM | TGI (NCI-H23 lung): > 100 µM | TGI (RXF-631 renal): > 100 µM | TGI (UACC-62 melanoma): 67.9 µM | TGI (HOP-62 NSCLC): > 100 µM | TGI (KM20L2 colon): 76.3 µM | TGI (LXFL 529 NSCLC): > 100 µM | TGI (DMS 114 small cell lung): 80.5 µM | TGI (COLO 205 colon): > 100 µM | TGI (HOP-18 NSCLC): > 100 µM | TGI (SF-268 CNS): > 100 µM | TGI (DMS 273 small cell lung): > 100 µM | TGI (SNB-78 CNS): > 100 µM

CCOC(=O)Cn1c2ccccc2c(=O)c2cc(C)c(C)c(C#N)c21
TGI (XF 498 CNS): 97.2 µM | TGI (DLD-1 colon): > 100 µM | TGI (NCI-H23 lung): > 100 µM | TGI (RXF-631 renal): > 100 µM | TGI (UACC-62 melanoma): > 100 µM | TGI (HOP-62 NSCLC): > 100 µM | TGI (KM20L2 colon): > 100 µM | TGI (LXFL 529 NSCLC): > 100 µM | TGI (COLO 205 colon): > 100 µM | TGI (M19-MEL melanoma): > 100 µM | TGI (HOP-18 NSCLC): > 100 µM | TGI (SF-268 CNS): > 100 µM | TGI (DMS 273 small cell lung): > 100 µM | TGI (SNB-78 CNS): > 100 µM

CCOC(=O)C(=O)C=P(c1ccccc1)(c1ccccc1)c1ccccc1
TGI (DLD-1 colon): > 100 µM | TGI (NCI-H23 lung): > 100 µM | TGI (RXF-631 renal): > 100 µM | TGI (UACC-62 melanoma): > 100 µM | TGI (HOP-62 NSCLC): > 100 µM | TGI (KM20L2 colon): > 100 µM | TGI (LXFL 529 NSCLC): > 100 µM | TGI (DMS 114 small cell lung): > 100 µM | TGI (COLO 205 colon): > 100 µM | TGI (M19-MEL melanoma): > 100 µM | TGI (HOP-18 NSCLC): > 100 µM | TGI (SF-268 CNS): > 100 µM | TGI (DMS 273 small cell lung): > 100 µM | TGI (SNB-78 CNS): > 100 µM

CNC(=O)NCNC(=O)NC
TGI (DLD-1 colon): > 100 µM | TGI (NCI-H23 lung): > 100 µM | TGI (RXF-631 renal): > 100 µM | TGI (UACC-62 melanoma): > 100 µM | TGI (HOP-62 NSCLC): > 100 µM | TGI (KM20L2 colon): > 100 µM | TGI (LXFL 529 NSCLC): > 100 µM | TGI (DMS 114 small cell lung): > 100 µM | TGI (COLO 205 colon): > 100 µM | TGI (M19-MEL melanoma): > 100 µM | TGI (HOP-18 NSCLC): > 100 µM | TGI (DMS 273 small cell lung): > 100 µM | TGI (SNB-78 CNS): > 100 µM

COc1cc2c(c(OC)c1OC)-c1ccc(SC)c(=O)cc1C(CC(=O)Oc1cccc([N+](=O)[O-])c1)C2 (stereo not drawn)
TGI (XF 498 CNS): 20.3 µM | TGI (DLD-1 colon): > 56.9 µM | TGI (RXF-631 renal): 12.8 µM | TGI (HOP-62 NSCLC): > 100 µM | TGI (KM20L2 colon): 2.06 µM | TGI (LXFL 529 NSCLC): > 100 µM | TGI (DMS 114 small cell lung): 3.95 µM | TGI (COLO 205 colon): 2.24 µM | TGI (M19-MEL melanoma): > 100 µM | TGI (HOP-18 NSCLC): > 100 µM | TGI (SF-268 CNS): > 27.2 µM | TGI (DMS 273 small cell lung): > 100 µM | TGI (SNB-78 CNS): > 100 µM

From PubChem BioAssay (NCI)
